In US20080051379A1, “Compositions and Methods for the Treatment of Peripheral B-Cell Neoplasms” (Trustees of Boston University, priority 2004, published 2008):

Assays:
Type in all cases: cell-based, human
B-CLL cells = assay: Hoechst 33342 apoptosis assay, B-CLL cells; conditions: for apoptosis by Hoechst 33342 analysis: 48 hrs culture, Roli 10 μM, HC 1 μM
Description: FIGS. 1A-D show the effects of the cyclic nucleotide phosphodiesterase inhibitors rolipram, RO20-1724 and cilostamide on hydrocortisone and dexamethasone-induced apoptosis in B-CLL. In FIG. 1A, leukemic cells from 11 B-CLL patients were assessed for apoptosis by […] analysis after 48 hrs culture in media alone (No treatment), 10 μM rolipram (Roli), 1 μM hydrocortisone (HC) or a combination of the two drugs (Roli+HC). In FIGS. 1B and 1C, leukemic cells from five patients with B-CLL were cultured in media alone or with a dose titration of hydrocortisone (1B: solid line) or dexamethasone (1C: solid line), followed by assessment for apoptosis by Hoechst 33342 FACS analysis at 48 hours. Using the same experimental conditions, the effect of addition of 10 μM rolipram (thick dashed line) to the glucocorticoids was also assessed. In FIG. 1D, the apoptotic effects of the PDE4 inhibitor RO20-1724 (RO20) (10 μM) or the PDE3 inhibitor cilostamide (Cilost) (10 μM) were assessed on B-CLL cells when combined with 1 μM hydrocortisone. Data represent the mean±SEM of triplicate samples.
Blood samples were obtained by IRB-approved consent from flow cytometry-confirmed B-CLL patients that were either untreated or for whom at least one month had elapsed since chemotherapy. Patients with active infections or other serious medical conditions were not included in this study.
CCRF-CEM cells were obtained from ATCC^27. Leukemic or normal mononuclear cells were obtained by centrifugation over Histopaque 1077 (Sigma Chemical Company, St. Louis, Mo.). For purification of T cells, whole mononuclear cells from normal subjects were incubated with magnetic beads coated with appropriate antibodies, then positively purified using a magnet (Miltenyi). Cells were cultured in RPMI 1640 media (Biowhittaker, Walkersville, Md.) supplemented with 10% fetal calf serum, 50 μMol/L 2-mercaptoethanol, 2 mMol/L L-glutamine, 10 mM Hepes pH 7.4, […] (Sigma Chemical Company, St. Louis, Mo.). For isolation of glucocorticoid resistant clones, parental CCRF-CEM cells were treated with 1 μM dexamethasone for 10 days, and surviving cells diluted to ≦one cell/well in a 96-well flat-bottom tissue culture plate, grown for three weeks in media supplemented with 20% fetal calf serum and 1% insulin-transferrin-selenium (GIBCO), and then transferred to regular growth medium. […] For isolation of glucocorticoid-sensitive clones, the same procedure was used, except that treatment with dexamethasone was omitted. A glucocorticoid-sensitive subclone (CEM-S2) was inhibited in its survival by dexamethasone with an IC50=0.007 μM.
Hoechst 33342 and DiOC6(3) apoptosis assays were performed as previously described^22,28. For CCRF-CEM cell survival assays, cells were plated at a density of 3×10^4/well in 96-well flat-bottom plates in the presence of test reagents or vehicle in 0.1 mL media. Following incubation for 72 hrs, 20 μl of a 20:1 MTS (2 mg/mL)/PMS (0.92 mg/ml) solution was added to each well, and the plates incubated for 2 hrs at 37°. The absorbance (O.D.) of the formazan product was determined at 492 nm using a plate reader (Titertek Multiscan Plus, Labsystems). Percent cell viability was calculated as follows: (O.D. control sample−O.D. blank)/(O.D. test sample−O.D. blank)×100. All assays were performed in triplicate.

[1] = system: GRE luciferase constructs transiently transfected into B-CLL cells; assay: GRE luciferase transactivation in B-CLL cells
Description: (§1) B-CLL cells (FIG. 3A) or CCRF-CEM cells (FIG. 3B) were transiently transfected with a luciferase construct in which expression is regulated by GRE elements, followed by culture in 10 μM rolipram (R), 40 μM forskolin (Fsk), 1 μM hydrocortisone (HC), 1 mM Rp-8Br-cAMPS (Rp-8Br) or combinations of these agents. 12 hours after addition of the drugs, the relative luminescence of the samples was determined. The data shown are the mean of 8 experiments for B-CLL and two experiments for CCRF-CEM cells. The single asterisk denote a significant difference by paired student's t test between HC alone and either R/HC (FIG. 3A) or F/HC (FIG. 3B) (p<0.02). The double asterisk denotes a significant difference between Rp-8Br-cAMPS/HC and HC alone (p<0.02).
An MMTV GRE luciferase construct, originally created by Dr. R. Evans, was a gift from Dr. Remco Spanjaard (Dept. of Otolaryngology, Boston Medical Center)^29. 100 million B CLL cells in 200 μl of PBS were added to 500 μl of Nucleofector Solution D containing 30 μg of endotoxin-free (Qiagen) MMTV luciferase constructs. 100 μl was used per transfection using a Nucleofector electroporation instrument (Amaxa Biosystems, Koeln, Germany) using program U16. […] Up to six such aliquots of transfected cells were diluted in media and pooled, prior to distribution of 8 million cells/well in 48 well plates. Two hours after transfection, drugs, cytokines or vehicle alone were added to the transfected cells. 14 hours after transfection, samples were processed using a luciferase assay kit (Promega). Triplicate samples were analyzed with an MGM Instruments Optocomp I luminometer (Hamden, Conn.). Analysis of cell viability (trypan blue exclusion) and total protein (Pierce) verified that equivalent numbers of viable B-CLL cells were analyzed. 100 million CCRF-CEM cells were similarly transfected, cultured and analyzed except that Nucleofector program O17 was utilized. […] Data were analyzed using a two-sided paired t test for means.

[2] = system: GRE luciferase construct in CCRF-CEM cells; assay: GRE luciferase transactivation in CCRF-CEM cells; conditions: 40 μM forskolin or 10 μM rolipram
Description: as §1
An MMTV GRE luciferase construct, originally created by Dr. R. Evans, was a gift from Dr. Remco Spanjaard (Dept. of Otolaryngology, Boston Medical Center)^29. […] Triplicate samples were analyzed with an MGM Instruments Optocomp I luminometer (Hamden, Conn.). Analysis of cell viability (trypan blue exclusion) and total protein (Pierce) verified that equivalent numbers of viable B-CLL cells were analyzed. 100 million CCRF-CEM cells were similarly transfected, cultured and analyzed except that Nucleofector program O17 was utilized. […] Data were analyzed using a two-sided paired t test for means.

[3] = system: PDE4A, PDE4B or PDE4D expression in CCRF-CEM cells; assay: Western analysis of PDE4 isoforms, CCRF-CEM cells; conditions: rolipram
Description: B-CLL and CCRF-CEM cells were incubated for 18 hours with media alone, 10 μM rolipram, 10 μM forskolin (Fsk), 1 μM hydrocortisone (HC), or the same concentration of rolipram combined with 1 μM hydrocortisone (Roli+HC) or 10 μM forskolin (Roli+Fsk). Lysates of the cells were then assessed for expression of PDE4A, PDE4B or PDE4D by Western analysis. Equal loading of samples was verified by immunoblotting for tubulin.
30 million B-CLL cells or 10 million CCRF-CEM cells were incubated for 18 hours in media alone or with the addition of drugs as indicated in the text. Western analysis was then carried out as previously described^30.

## COc1ccc(C2CNC(=O)C2)cc1OC1CCCC1 (centres unmarked) [rolipram, 4-(3-cyclopentyloxy-4-methoxyphenyl)-2-pyrrolidone]
B-CLL cells; 10 μM rolipram + dexamethasone dose titration, 48 hours
  B-CLL apoptosis, rolipram added to dexamethasone: augmented B-CLL apoptosis beyond the levels observed with either agent alone
B-CLL cells; B-CLL patient #1, No Rx 10
  apoptosis by Hoechst 33342 analysis: 17%
B-CLL cells; B-CLL patient #2, No Rx 11
  apoptosis by Hoechst 33342 analysis: 13%
B-CLL cells; B-CLL patient #3, No Rx 13
  apoptosis by Hoechst 33342 analysis: 24%
B-CLL cells; B-CLL patient #4, No Rx 23
  apoptosis by Hoechst 33342 analysis: 34%
B-CLL cells; B-CLL patient #5, No Rx 25
  apoptosis by Hoechst 33342 analysis: 37%
B-CLL cells; B-CLL patient #6, No Rx 27
  apoptosis by Hoechst 33342 analysis: 45%
B-CLL cells; B-CLL patient #7, No Rx 31
  apoptosis by Hoechst 33342 analysis: 67%
B-CLL cells; B-CLL patient #8, No Rx 33
  apoptosis by Hoechst 33342 analysis: 62%
B-CLL cells; B-CLL patient #9, No Rx 35
  apoptosis by Hoechst 33342 analysis: 81%
B-CLL cells; B-CLL patient #10, No Rx 44
  apoptosis by Hoechst 33342 analysis: 58%
B-CLL cells; B-CLL patient #11, No Rx 61
  apoptosis by Hoechst 33342 analysis: 75%
B-CLL cells; addition of 10 μM rolipram to 100 μM hydrocortisone, five patients
  augmentation of induction of apoptosis relative to the increment induced with 100 μM hydrocortisone alone: 40±18%
[1]; 10 μM rolipram + 1 μM hydrocortisone, 5 patients, p<0.02
  augmentation of hydrocortisone-induced transactivation (average): 33%
[1]; 10 μM rolipram alone, 7/8 experiments, not statistically significant (p<0.23)
  augmentation of GRE transactivation by rolipram itself: 10%
[2]
  GRE transactivation as a single agent: none
[3]
  induction of PDE4 isoforms: nor induced any PDE4 isoform
